Here are results for 41 molecules from patent publication US9216973B2, “Insecticidal compounds” (Syngenta Participations AG, priority 2008, dated 2015).

As a reminder, the pest or weed control is the degree to which the test organism was suppressed or injured, in per cent. High values mean a strong effect, low ones a weak effect.

SMILES strings stand for the structures.

The test system of one assay is Spodoptera littoralis (Egyptian cotton leafworm). The experiment in a line: Spodoptera littoralis cotton leaf disc spray test. The format is in vivo. Conditions: foliar, 72 h, 200 ppm spray on cotton leaf discs, L1 larvae, mortality, feeding behavior, growth regulation 3 days after treatment. On the procedure:
This Example illustrates the insecticidal and acaricidal properties of compounds of formula (I). The tests were performed as follows:
Spodoptera littoralis (Egyptian cotton leafworm):
Cotton leaf discs were placed on agar in a 24-well microtiter plate and sprayed with test solutions at an application rate of 200 ppm. After drying, the leaf discs were infested with 5 L1 larvae. The samples were checked for mortality, feeding behavior, and growth regulation 3 days after treatment (DAT). The following compound gave at least 80% control of Spodoptera littoralis: A1, A2, A5, A6, A7, A8, A10, A11, A12, A13, A14, A15, A16, A17, A18, A19, A21, A22, A23, A24, A25, A30, A31, A32, A33, A34, A35, A39, A40, A41 A42, A43, A44, A45, A46, A47, A48, A49, A50, A51, A53, A54, A55, A59, A60, A61, A62. Heliothis virescens (Tobacco budworm): Eggs (0-24 h old) were placed in 24-well microtiter plate on artificial diet and treated with test solutions at an application rate of 200 ppm (concentration in well 18 ppm) by pipetting. After an incubation period of 4 days, samples were checked for egg mortality, larval mortality, and growth regulation. The following compound gave at least 80% control of Heliothis virescens: A1, A2, A3, A4, A5, A6, A7, A8, A10, A11, A12, A13, A14, A15, A16, A18, A19, A21, A22, A24, A25, A30, A31, A32, A33, A34, A35, A37, A38, A39, A40, A42, A43, A44, A45, A46, A47, A48, A49, A50, A51, A55, AA57, A58, A59, A60, A61, A62. Plutella xylostella (Diamond back moth): 24-well microtiter plate (MTP) with artificial diet was treated with test solutions at an application rate of 200 ppm (concentration in well 18 ppm) by pipetting. After drying, the MTP's were infested with L2 larvae (7-12 per well). After an incubation period of 6 days, samples were checked for larval mortality and growth regulation. The following compound gave at least 80% control of Plutella xylostella: A1, A2, A5, A6, A7, A8, A9, A10, A11, A12, A13, A14, A15, A16, A17, A18, A19, A20, A21, A22, A24, A25, A30, A31, A32, A33, A34, A35, A37, A38, A39, A40, A42, A43, A44, A45, A46, A47, A48, A49, A50, A51, A52, A53, A54, A55, A57, A58, A59, A60, A61, A62, B3. Diabrotica balteata (Corn root worm): A 24-well microtiter plate (MTP) with artificial diet was treated with test solutions at an application rate of 200 ppm (concentration in well 18 ppm) by pipetting. After drying, the MTP's were infested with L2 larvae (6-10 per well). After an incubation period of 5 days, samples were checked for larval mortality and growth regulation. The following compound gave at least 80% control of Diabrotica balteata: A1, A2, A5, A6, A7, A10, A11, A12, A13, A14, A15, A16, A17, A18, A19, A21, A22, A24, A25, A30, A31, A32, A33, A34, A35, A38, A39, A40, A42, A43, A44, A45, A46, A47, A48, A49, A50, A59, A60, A61, A62. Thrips tabaci (Onion thrips): Sunflower leaf discs were placed on agar in a 24-well microtiter plate and sprayed with test solutions at an application rate of 200 ppm. After drying, the leaf discs were infested with an […] population of mixed ages. After an incubation period of 7 days, samples were checked for mortality. The following compounds gave at least 80% control of Thrips tabaci: A1, A2, A5, A6, A7, A8, A10, A12, A13, A14, A15, A16, A17, A18, A19, A21, A24, A25, A30, A31, A32, A33, A34, A35, A39, A42, A43, A44, A45, A46, A47, A48, A49, A50, A51, A53, A54, A57, A58, A59, A60, A61, A62. Tetranychus urticae (Two-spotted spider mite): Bean leaf discs on agar in 24-well microtiter plates were sprayed with test solutions at an application rate of 200 ppm. After drying, the leaf discs are infested with mite populations of mixed ages. 8 days later, discs are checked for egg mortality, larval mortality, and adult mortality. […]
`CC1(NC(=O)c2ccc(C3=NOC(c4cc(Cl)cc(Cl)c4)(C(F)(F)F)C3)c3ccccc23)CSC1` (centres unmarked) [A1] came in with a pest or weed control at 200 ppm of no less than 80%. For the molecule `O=C(NC1CSC1)c1ccc(C2=NOC(c3cc(Cl)cc(Cl)c3)(C(F)(F)F)C2)c2ccccc12` (centres unmarked) [A2], the pest or weed control at 200 ppm is no less than 80%.

For `Cc1cc(C2=NOC(c3cc(Cl)cc(Cl)c3)(C(F)(F)F)C2Br)ccc1C(=O)NC1(C)CSC1` (centres unmarked) [A5], the pest or weed control at 200 ppm was no less than 80%.

`Cc1cc(C2=NOC(c3cc(Cl)cc(Cl)c3)(C(F)(F)F)C2Br)ccc1C(=O)NC1CSC1` (centres unmarked) [A6] registered a pest or weed control at 200 ppm of no less than 80%. Still for that read-out and setting: for `Cc1cc(C2=NOC(c3cc(Cl)cc(Cl)c3)(C(F)(F)F)C2Br)ccc1C(=O)NC1C[S+]([O-])C1` (centres unmarked) [A7] the value was no less than 80%; for `Cc1cc(N2CC(c3cc(Cl)cc(Cl)c3)(C(F)(F)F)OC2=O)ccc1C(=O)NC1C[S+]([O-])C1` (centres unmarked) [A10], no less than 80%; for `Cc1cc(N2CC(c3cc(Cl)cc(Cl)c3)(C(F)(F)F)OC2=O)ccc1C(=O)NC1CSC1` (centres unmarked) [A11], no less than 80%. The same measure, in the same setting: as for `Cc1cc(C2=NN(C)C(c3cc(Cl)cc(Cl)c3)(C(F)(F)F)C2)ccc1C(=O)NC1(C)CSC1` (centres unmarked) [A12], the figure is no less than 80%; as for `Cc1cc(C2=NN(C)C(c3cc(Cl)cc(Cl)c3)(C(F)(F)F)C2)ccc1C(=O)NC1C[S+]([O-])C1` (centres unmarked) [A13], no less than 80%. On the same count and under the same terms, for `Cc1cc(C2=NN(C)C(c3cc(Cl)cc(Cl)c3)(C(F)(F)F)C2)ccc1C(=O)NC1CSC1` (centres unmarked) [A14] the value was no less than 80%; for `O=C(NC1CS(=O)(=O)C1)c1ccc(C2=NOC(c3cc(Cl)cc(Cl)c3)(C(F)(F)F)C2)c2ccccc12` (centres unmarked) [A15], no less than 80%; for `O=C(NC1C[S+]([O-])C1)c1ccc(C2=NOC(c3cc(Cl)cc(Cl)c3)(C(F)(F)F)C2)c2ccccc12` (centres unmarked) [A16], no less than 80%. As to `Cc1cc(C2=NOC(c3cc(Cl)cc(Cl)c3)(C(F)(F)F)O2)ccc1C(=O)NC1CSC1` (centres unmarked) [A17], the pest or weed control at 200 ppm is no less than 80%. Still for that read-out and setting: for `Cc1cc(C2CC(c3cc(Cl)cc(Cl)c3)(C(F)(F)F)ON2C)ccc1C(=O)NC1C[S+]([O-])C1` (centres unmarked) [A18] the value was no less than 80%; for `Cc1cc(C2CC(c3cc(Cl)cc(Cl)c3)(C(F)(F)F)ON2C)ccc1C(=O)NC1CS(=O)(=O)C1` (centres unmarked) [A19], no less than 80%.

Molecule `Cc1cc(C2CC(c3cc(Cl)cc(Cl)c3)(C(F)(F)F)ON2C)ccc1C(=O)NC1CSC1` (centres unmarked) [A21] registered a pest or weed control at 200 ppm of no less than 80%. Molecule `O=C(NC1CS(=O)(=O)C1)c1ccc(C2=NOC(c3cc(Cl)cc(Cl)c3)(C(F)(F)F)C2)c2nsnc12` (centres unmarked) [A22] came in with a pest or weed control at 200 ppm of no less than 80%. Same read-out and setting: for `Cc1cc(C2=NOC(c3cc(Cl)cc(Cl)c3)(C(F)(F)F)C2Cl)ccc1C(=O)NC1CS(=O)(=O)C1` (centres unmarked) [A32] the value was no less than 80%; for `Cc1cc(C2=NOC(c3cc(Cl)cc(Cl)c3)(C(F)(F)F)C2Cl)ccc1C(=O)NC1(C)CSC1` (centres unmarked) [A33], no less than 80%; for `Cc1cc(C2=NOC(c3cc(Cl)cc(Cl)c3)(C(F)(F)F)C2Cl)ccc1C(=O)NC1C[S+]([O-])C1` (centres unmarked) [A34], no less than 80%. In turn, `O=C(NC1CS(=O)(=O)C1)c1ccc(C2=NOC(c3cc(Cl)cc(Cl)c3)(C(F)(F)F)C2Br)c2ccccc12` (centres unmarked) [A42] yielded a pest or weed control at 200 ppm of no less than 80%. `CC1(NC(=O)c2ccc(C3=NOC(c4cc(Cl)cc(Cl)c4)(C(F)(F)F)C3Br)c3ccccc23)CSC1` (centres unmarked) [A43] returned a pest or weed control at 200 ppm of no less than 80%.

Molecule `O=C(NC1C[S+]([O-])C1)c1ccc(C2=NOC(c3cc(Cl)cc(Cl)c3)(C(F)(F)F)C2Br)c2ccccc12` (centres unmarked) [A44] had a pest or weed control at 200 ppm of no less than 80%. The same measure, in the same setting: as for `Cc1cc(C2=NCC(c3cc(Cl)cc(Cl)c3)(C(F)(F)F)C2)ccc1C(=O)NC1CS(=O)(=O)C1` (centres unmarked) [A46], the figure is no less than 80%. Turning to `Cc1cc(C2=NCC(c3cc(Cl)cc(Cl)c3)(C(F)(F)F)C2)ccc1C(=O)NC1(C)CSC1` (centres unmarked) [A47], the pest or weed control at 200 ppm was no less than 80%. Same read-out and setting: for `Cc1cc(C2=NCC(c3cc(Cl)cc(Cl)c3)(C(F)(F)F)C2)ccc1C(=O)NC1C[S+]([O-])C1` (centres unmarked) [A48] the value was no less than 80%; for `Cc1cc(C2=NCC(c3cc(Cl)cc(Cl)c3)(C(F)(F)F)C2)ccc1C(=O)NC1CSC1` (centres unmarked) [A49], no less than 80%; for `Cc1cc(C2=NOC(c3cc(Cl)cc(Cl)c3)(C(F)(F)F)C2O)ccc1C(=O)NC1CS(=O)(=O)C1` (centres unmarked) [A51], no less than 80%.

As to `Cc1cc(C2=NOC(c3cc(Cl)cc(Cl)c3)(C(F)(F)F)C2O)ccc1C(=O)NC1C[S+]([O-])C1` (centres unmarked) [A53], the pest or weed control at 200 ppm was no less than 80%. In turn, `Cc1cc(C2=NOC(c3cc(Cl)cc(Cl)c3)(C(F)(F)F)C2O)ccc1C(=O)NC1CSC1` (centres unmarked) [A54] gave a pest or weed control at 200 ppm of no less than 80%. In turn, `Cc1cc(C2=NOC(c3cc(Cl)cc(Cl)c3)(C(F)(F)F)/C2=N/O)ccc1C(=O)NC1CS(=O)(=O)C1` (centres unmarked) [A55] came in with a pest or weed control at 200 ppm of no less than 80%. Molecule `Cc1cc(C2=NOC(c3cc(Cl)cc(Cl)c3)(C(F)(F)F)C2F)ccc1C(=O)NC1CS(=O)(=O)C1` (centres unmarked) [A59] returned a pest or weed control at 200 ppm of no less than 80%. Still for that read-out and setting: for `Cc1cc(C2=NOC(c3cc(Cl)cc(Cl)c3)(C(F)(F)F)C2F)ccc1C(=O)NC1(C)CSC1` (centres unmarked) [A60] the value was no less than 80%; for `Cc1cc(C2=NOC(c3cc(Cl)cc(Cl)c3)(C(F)(F)F)C2F)ccc1C(=O)NC1CSC1` (centres unmarked) [A61], no less than 80%.

The molecule `Cc1cc(C2=NOC(c3cc(Cl)cc(Cl)c3)(C(F)(F)F)C2F)ccc1C(=O)NC1C[S+]([O-])C1` (centres unmarked) [A62] yielded a pest or weed control at 200 ppm of no less than 80%.

The assay is the same for the next values; noted with them: same protocol, 200 ppm.
For `Cc1nc2c(C3=NOC(c4cc(Cl)cc(Cl)c4)(C(F)(F)F)C3)ccc(C(=O)NC3CS(=O)(=O)C3)c2o1` (centres unmarked) [A26], the “effect on mortality, feeding behavior, or growth regulation” value (“effect on mortality, feeding behavior” below) is reported as “little or no effect”. The same measure, in the same setting: as for `Cc1nc2c(C3=NOC(c4cc(Cl)cc(Cl)c4)(C(F)(F)F)C3)ccc(C(=O)NC3(C)CSC3)c2o1` (centres unmarked) [A27], the entry is “little or no effect”; as for `Cc1nc2c(C3=NOC(c4cc(Cl)cc(Cl)c4)(C(F)(F)F)C3)ccc(C(=O)NC3C[S+]([O-])C3)c2o1` (centres unmarked) [A28], “little or no effect”. As for `Cc1nc2c(C3=NOC(c4cc(Cl)cc(Cl)c4)(C(F)(F)F)C3)ccc(C(=O)NC3CSC3)c2o1` (centres unmarked) [A29], the “effect on mortality, feeding behavior” value was “little or no effect”.

As for `CC1(NC(=O)c2cccc3c(C4=NOC(c5cc(Cl)cc(Cl)c5)(C(F)(F)F)C4)cccc23)CSC1` (centres unmarked) [A36], the “effect on mortality, feeding behavior” value is “little or no effect”. Same read-out and setting: for `Cc1cc(C2=NOC(c3cc(Cl)cc(Cl)c3)(C(F)(F)F)/C2=N/O)ccc1C(=O)NC1(C)CSC1` (centres unmarked) [A56] the value was “little or no effect”.
